{
  "source": "patent US8765728B2",
  "about": "“[1,5]-diazocin derivatives” (MelliTech, priority 2009, dated 2014)",
  "data": [
    {"system": "Min6 cell", "test": "Insulin secretion response of beta cell line to formula I compounds (insulin ELISA)", "format": "cell-based", "settings": "rank according to % increase versus control at most effective dose", "procedure,_shortened": "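After compound or vehicle exposure, Min6 cells were held 2 h in glucose-free medium and preincubated 30 min at 37° C in glucose-free KRBH (pH 7.4, 0.1% BSA). They were then incubated 30 min at 37° C in KRBH with varying glucose. Secreted insulin and acid-ethanol-extracted intracellular insulin were measured by ELISA.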", "values": [
      {"smiles": "O=C(CN1CCC(=O)N(C2CC2)Cc2cc(Cl)ccc21)c1ccc(Cl)cc1", "note": "[Compound 82, 8-chloro-1-(2-(4-chlorophenyl)-2-oxoethyl)-5-cyclopropyl-2,3,5,6-tetrahydrobenzo[b][1,5]diazocin-4(1H)-one]", "Insulin secretion (Min6 cell) Range 1 to 5": "1 (1: 90-110% of control)"},
      {"smiles": "O=C(CN1CCC(=O)N(C2CC2)Cc2cc(Cl)ccc21)c1cccc(F)c1", "note": "[Compound 83, 8-chloro-5-cyclopropyl-1-(2-(3-fluorophenyl)-2-oxoethyl)-2,3,5,6-tetrahydrobenzo[b][1,5]diazocin-4(1H)-one]", "Insulin secretion (Min6 cell) Range 1 to 5": "1 (1: 90-110% of control)"},
      {"smiles": "COc1ccc2c(c1)CN(C1CC1)C(=O)CCN2C(=O)c1ccno1", "note": "[Compound 84, 5-cyclopropyl-1-(isoxazole-5-carbonyl)-8-methoxy-2,3,5,6-tetrahydrobenzo[b][1,5]diazocin-4(1H)-one]", "Insulin secretion (Min6 cell) Range 1 to 5": "1 (1: 90-110% of control)"},
      {"smiles": "O=C1CCN(CC(O)c2ccc(Cl)cc2)c2ccc(Cl)cc2CN1C1CC1", "note": "(stereo not shown) [Compound 85, 8-chloro-1-(2-(4-chlorophenyl)-2-hydroxyethyl)-5-cyclopropyl-2,3,5,6-tetrahydrobenzo[b][1,5]diazocin-4(1H)-one]", "Insulin secretion (Min6 cell) Range 1 to 5": "1 (1: 90-110% of control)"},
      {"smiles": "O=C1CCN(CC(O)c2cccc(F)c2)c2ccc(Cl)cc2CN1C1CC1", "note": "(stereo not shown) [Compound 86, 8-chloro-5-cyclopropyl-1-(2-(3-fluorophenyl)-2-hydroxyethyl)-2,3,5,6-tetrahydrobenzo[b][1,5]diazocin-4(1H)-one]", "Insulin secretion (Min6 cell) Range 1 to 5": "2 (2: 110-120% of control)"},
      {"smiles": "O=C1CCN(C[C@@H](O)COCc2ccccc2)c2ccc3c(c2CN1C1CC1)OCCO3", "note": "[Compound 88, 7-[(2R)-3-(benzyloxy)-2-hydroxypropyl]-11-cyclopropyl-2,3,8,9,11,12-hexahydro[1,4]dioxino[2,3-h][1,5]benzodiazocin-10(7H)-one]", "Insulin secretion (Min6 cell) Range 1 to 5": "1 (1: 90-110% of control)"},
      {"smiles": "COc1ccc2c(c1)CN(C1CC1)C(=O)CCN2C[C@@H](O)COc1ccc(Cl)cc1", "note": "[Compound 89, (R)-1-(3-(4-chlorophenoxy)-2-hydroxypropyl)-5-cyclopropyl-8-methoxy-2,3,5,6-tetrahydrobenzo[b][1,5]diazocin-4(1H)-one]", "Insulin secretion (Min6 cell) Range 1 to 5": "1 (1: 90-110% of control)"},
      {"smiles": "COc1ccc2c(c1)CN(C1CC1)C(=O)CCN2C[C@H](O)COc1ccc(Cl)cc1", "note": "[Compound 90, (S)-1-(3-(4-chlorophenoxy)-2-hydroxypropyl)-5-cyclopropyl-8-methoxy-2,3,5,6-tetrahydrobenzo[b][1,5]diazocin-4(1H)-one]", "Insulin secretion (Min6 cell) Range 1 to 5": "1 (1: 90-110% of control)"},
      {"smiles": "O=C(c1ccno1)N1CCC(=O)N(C2CC2)Cc2c1ccc1c2OCCO1", "note": "[Compound 91, 11-cyclopropyl-7-(isoxazol-5-ylcarbonyl)-2,3,8,9,11,12-hexahydro[1,4]dioxino[2,3-h][1,5]benzodiazocin-10(7H)-one]", "Insulin secretion (Min6 cell) Range 1 to 5": "1 (1: 90-110% of control)"},
      {"smiles": "O=C(c1ncoc1-c1ccccc1)N1CCC(=O)N(C2CC2)Cc2c1ccc1c2OCCO1", "note": "[Compound 92, 11-cyclopropyl-7-[(5-phenyl-1,3-oxazol-4-yl)carbonyl]-2,3,8,9,11,12-hexahydro[1,4]dioxino[2,3-h][1,5]benzodiazocin-10(7H)-one]", "Insulin secretion (Min6 cell) Range 1 to 5": "1 (1: 90-110% of control)"},
      {"smiles": "O=C(CN1CCC(=O)N(C2CC2)Cc2c1ccc1c2OCCO1)c1cccc(F)c1", "note": "[Compound 93, 11-cyclopropyl-7-[2-(3-fluorophenyl)-2-oxoethyl]-2,3,8,9,11,12-hexahydro[1,4]dioxino[2,3-h][1,5]benzodiazocin-10(7H)-one]", "Insulin secretion (Min6 cell) Range 1 to 5": "1 (1: 90-110% of control)"},
      {"smiles": "O=C(CN1CCC(=O)N(C2CC2)Cc2c1ccc1c2OCCO1)c1ccc(Cl)cc1", "note": "[Compound 94, 7-[2-(4-chlorophenyl)-2-oxoethyl]-11-cyclopropyl-2,3,8,9,11,12-hexahydro[1,4]dioxino[2,3-h][1,5]benzodiazocin-10(7H)-one]", "Insulin secretion (Min6 cell) Range 1 to 5": "1 (1: 90-110% of control)"},
      {"smiles": "O=C1CCN(CC(O)COc2ccccc2)c2ccc3c(c2CN1C1CC1)OCCO3", "note": "(stereo not shown) [Compound 95, 11-cyclopropyl-7-(2-hydroxy-3-phenoxypropyl)-2,3,8,9,11,12-hexahydro[1,4]dioxino[2,3-h][1,5]benzodiazocin-10(7H)-one]", "Insulin secretion (Min6 cell) Range 1 to 5": "1 (1: 90-110% of control)"},
      {"smiles": "O=C1CCN(CC(O)c2cccc(F)c2)c2ccc3c(c2CN1C1CC1)OCCO3", "note": "(stereo not shown) [Compound 96, 11-cyclopropyl-7-[2-(3-fluorophenyl)-2-hydroxyethyl]-2,3,8,9,11,12-hexahydro[1,4]dioxino[2,3-h][1,5]benzodiazocin-10(7H)-one]", "Insulin secretion (Min6 cell) Range 1 to 5": "3 (3: 120-140% of control)"},
      {"smiles": "O=C1CCN(CC(O)c2ccc(Cl)cc2)c2ccc3c(c2CN1C1CC1)OCCO3", "note": "(stereo not shown) [Compound 97, 7-[2-(4-chlorophenyl)-2-hydroxyethyl]-11-cyclopropyl-2,3,8,9,11,12-hexahydro[1,4]dioxino[2,3-h][1,5]benzodiazocin-10(7H)-one]", "Insulin secretion (Min6 cell) Range 1 to 5": "2 (2: 110-120% of control)"},
      {"smiles": "COc1ccc2c(c1)CN(C1CC1)C(=O)CCN2C(=O)c1ncoc1-c1ccccc1", "note": "[Compound 98, 5-cyclopropyl-8-methoxy-1-(5-phenyloxazole-4-carbonyl)-2,3,5,6-tetrahydrobenzo[b][1,5]diazocin-4(1H)-one]", "Insulin secretion (Min6 cell) Range 1 to 5": "2 (2: 110-120% of control)"},
      {"smiles": "COc1ccc2c(c1)CN(C1CC1)C(=O)CCN2C(=O)c1cc(C)nn1C", "note": "[Compound 99, 5-cyclopropyl-1-(1,3-dimethyl-1H-pyrazole-5-carbonyl)-8-methoxy-2,3,5,6-tetrahydrobenzo[b][1,5]diazocin-4(1H)-one]", "Insulin secretion (Min6 cell) Range 1 to 5": "1 (1: 90-110% of control)"},
      {"smiles": "COc1ccc2c(c1)CN(C1CC1)C(=O)CCN2C(=O)c1c(C)noc1C", "note": "[Compound 100, 5-cyclopropyl-1-(3,5-dimethylisoxazole-4-carbonyl)-8-methoxy-2,3,5,6-tetrahydrobenzo[b][1,5]diazocin-4(1H)-one]", "Insulin secretion (Min6 cell) Range 1 to 5": "1 (1: 90-110% of control)"},
      {"smiles": "COc1ccc2c(c1)CN(C1CC1)C(=O)CCN2C(=O)c1cnccn1", "note": "[Compound 101, 5-cyclopropyl-8-methoxy-1-(pyrazine-2-carbonyl)-2,3,5,6-tetrahydrobenzo[b][1,5]diazocin-4(1H)-one]", "Insulin secretion (Min6 cell) Range 1 to 5": "2 (2: 110-120% of control)"},
      {"smiles": "O=C(c1ncoc1-c1ccccc1)N1CCC(=O)N(C2CC2)Cc2cccnc21", "note": "[Compound 103, 5-cyclopropyl-1-(5-phenyloxazole-4-carbonyl)-2,3,5,6-tetrahydropyrido[2,3-b][1,5]diazocin-4(1H)-one]", "Insulin secretion (Min6 cell) Range 1 to 5": "2 (2: 110-120% of control)"},
      {"smiles": "Cc1cc(C(=O)N2CCC(=O)N(C3CC3)Cc3cccnc32)no1", "note": "[Compound 104, 5-cyclopropyl-1-(5-methylisoxazole-3-carbonyl)-2,3,5,6-tetrahydropyrido[2,3-b][1,5]diazocin-4(1H)-one]", "Insulin secretion (Min6 cell) Range 1 to 5": "4 (4: 140-170% of control)"},
      {"smiles": "Cc1cc(C(=O)N2CCC(=O)N(C3CC3)Cc3cccnc32)n(C)n1", "note": "[Compound 105, 5-cyclopropyl-1-(1,3-dimethyl-1H-pyrazole-5-carbonyl)-2,3,5,6-tetrahydropyrido[2,3-b][1,5]diazocin-4(1H)-one]", "Insulin secretion (Min6 cell) Range 1 to 5": "3 (3: 120-140% of control)"},
      {"smiles": "Cc1noc(C)c1C(=O)N1CCC(=O)N(C2CC2)Cc2cccnc21", "note": "[Compound 106, 5-cyclopropyl-1-(3,5-dimethylisoxazole-4-carbonyl)-2,3,5,6-tetrahydropyrido[2,3-b][1,5]diazocin-4(1H)-one]", "Insulin secretion (Min6 cell) Range 1 to 5": "1 (1: 90-110% of control)"},
      {"smiles": "O=C(c1cnccn1)N1CCC(=O)N(C2CC2)Cc2cccnc21", "note": "[Compound 107, 5-cyclopropyl-1-(pyrazine-2-carbonyl)-2,3,5,6-tetrahydropyrido[2,3-b][1,5]diazocin-4(1H)-one]", "Insulin secretion (Min6 cell) Range 1 to 5": "2 (2: 110-120% of control)"},
      {"smiles": "O=C1CCNc2ccc(OC(F)F)cc2CN1C1CC1", "note": "[Compound 108, 5-cyclopropyl-8-(difluoromethoxy)-2,3,5,6-tetrahydrobenzo[b][1,5]diazocin-4(1H)-one]", "Insulin secretion (Min6 cell) Range 1 to 5": "2 (2: 110-120% of control)"},
      {"smiles": "COc1ccc2c(c1)CN(C1CC1)C(=O)CCN2C[C@@H](O)COc1cccc(F)c1", "note": "[Compound 109, (R)-5-cyclopropyl-1-(3-(3-fluorophenoxy)-2-hydroxypropyl)-8-methoxy-2,3,5,6-tetrahydrobenzo[b][1,5]diazocin-4(1H)-one]", "Insulin secretion (Min6 cell) Range 1 to 5": "3 (3: 120-140% of control)"},
      {"smiles": "COc1ccc2c(c1)CN(C1CC1)C(=O)CCN2C[C@H](O)COc1cccc(F)c1", "note": "[Compound 110, (S)-5-cyclopropyl-1-(3-(3-fluorophenoxy)-2-hydroxypropyl)-8-methoxy-2,3,5,6-tetrahydrobenzo[b][1,5]diazocin-4(1H)-one]", "Insulin secretion (Min6 cell) Range 1 to 5": "1 (1: 90-110% of control)"},
      {"smiles": "O=C(c1ccno1)N1CCC(=O)N(C2CC2)Cc2cc(OC(F)F)ccc21", "note": "[Compound 111, 5-cyclopropyl-8-(difluoromethoxy)-1-(isoxazole-5-carbonyl)-2,3,5,6-tetrahydrobenzo[b][1,5]diazocin-4(1H)-one]", "Insulin secretion (Min6 cell) Range 1 to 5": "1 (1: 90-110% of control)"},
      {"smiles": "O=C(c1ncoc1-c1ccccc1)N1CCC(=O)N(C2CC2)Cc2cc(OC(F)F)ccc21", "note": "[Compound 112, 5-cyclopropyl-8-(difluoromethoxy)-1-(5-phenyloxazole-4-carbonyl)-2,3,5,6-tetrahydrobenzo[b][1,5]diazocin-4(1H)-one]", "Insulin secretion (Min6 cell) Range 1 to 5": "1 (1: 90-110% of control)"},
      {"smiles": "Cc1cc(C(=O)N2CCC(=O)N(C3CC3)Cc3cc(OC(F)F)ccc32)no1", "note": "[Compound 113, 5-cyclopropyl-8-(difluoromethoxy)-1-(5-methylisoxazole-3-carbonyl)-2,3,5,6-tetrahydrobenzo[b][1,5]diazocin-4(1H)-one]", "Insulin secretion (Min6 cell) Range 1 to 5": "1 (1: 90-110% of control)"},
      {"smiles": "Cc1cc(C(=O)N2CCC(=O)N(C3CC3)Cc3cc(OC(F)F)ccc32)n(C)n1", "note": "[Compound 114, 5-cyclopropyl-8-(difluoromethoxy)-1-(1,3-dimethyl-1H-pyrazole-5-carbonyl)-2,3,5,6-tetrahydrobenzo[b][1,5]diazocin-4(1H)-one]", "Insulin secretion (Min6 cell) Range 1 to 5": "1 (1: 90-110% of control)"}
    ]}
  ]
}
